Experimental data as given in patent EP1304119A2, “Method for preventing and treating hearing loss using a neurturin protein product” (Amgen Inc., priority 1997, dated 1999).

Tests used:
cochlear hair cells [1] = assay: In vivo hair cell loss after cisplatin, neurturin infused into the inner ear by mini-pump; design: species or system guinea pigs; conditions: cisplatin 7.5 mg/kg twice
Experimental: The following example describes the inner ear administration of neurturin protein product to protect cochlear hair cells against ototoxicity in an animal model. The neurturin protein product is introduced into the inner ear via a cannula pushed into the scala tympani through a hole drilled in the basal turn of the cochlea. The cannula is connected to an Alzet mini-pump loaded with neurturin protein product (50 ng/ml) at a releasing rate of 0.5 µl/hour for 14 days. […] The experiment is terminated after 27 days. The hair cells are stained with FITC-phalloidin, and their number is determined in the middle turn of the cochlea (in at least 20% of the middle turn part). The results are expressed as the percent of hair cells lost for each individual guinea pig for the neurturin protein product treated ear (right ear) and the untreated ear (left ear).
The loading of a pump with methylene dye is done by holding the pump in a vertical position. A dye-loaded syringe is inserted completely into the pump, and the dye is injected until the pump overflowed. Injection of any air bubbles into the pump is avoided. A short piece of sterile V/4 tubing is placed onto the Flow Moderator. Neurturin protein product is loaded at a concentration of 50 ng/ml in PBS + 0.1% BSA, in a total volume of 230 µl, to within about 10 mm of the cannula tip, using a syringe connected with V/4 tubing. […]

cochlear hair cells [2] = assay: Organ of Corti (cochlea) explant culture, hair cell survival after cisplatin exposure (FITC-phalloidin count); format: cell-based, rat; conditions: cisplatin treatment alone
Source text: Triton X-100 (t-Octylphenoxypoly-ethoxyethanol. Cat. #X-100, Sigma. St. Louis, MO) • 4. Phalloidin (FITC Labeled. Cat. #P-5282, Sigma. St. Louis, MO) • 5. Vectashield (Mounting Medium, Cat. #H-1000, Vector, Burlingame, CA)
Organ of Corti explants were obtained from P3-P4 Wistar rats. Rats were decapitated, the lower jaw was cut out and skin removed. The temporal bone was collected in dissection solution, the otic capsule exposed and the bony-cartilaginous cochlear capsule was carefully separated from the temporal bone. Freed cochlea were transferred to another Petri dish with dissection solution for further dissection. […] The organ of Corti was then transferred to a 35-mm diameter Petri dish containing cold PBS supplemented with glucose and ready to be cultured. […]
For each experimental point, 2 to 4 cochlea were used. In each cochlea, the number of hair cells was counted in 2-3 section, 175 mm in length each. Only the sections in the middle turn of the cochlea were analyzed. […]

cochlear hair cells [3] = assay: Organ of Corti (cochlea) explant culture, hair cell survival after neomycin exposure (FITC-phalloidin count); format: cell-based, rat; conditions: for Hair cell survival (% of untreated): Neomycin alone (0.6 mM), added 24 hours after plating, 3 days exposure, mean ± SD, 4320 min, 600 µM
Source text: • 1. Neomycin solution (Cat. #N1142, Sigma. St. […] Cat. #X-100, Sigma. St. Louis, MO) • 4. Phalloidin (FITC Labeled. Cat. #P-5282, Sigma. St. Louis, MO) • 5. Vectashield (Mounting Medium, Cat. #H-1000, Vector, Burlingame, CA)
Organ of Corti explants were obtained from P3-P4 Wistar rats. Rats were decapitated, the lower jaw was cut out and skin removed. The temporal bone was collected in dissection solution, the otic capsule exposed and the bony-cartilaginous cochlear capsule was carefully separated from the temporal bone. Freed cochlea were transferred to another Petri dish with dissection solution for further dissection. Intact organs of Corti were obtained by using a fine forceps to hold central VIII nerve tissue and remove it out, then the stria vascular membrane was carefully stripped off, starting from the apex or base. The organ of Corti was then transferred to a 35-mm diameter Petri dish containing cold PBS supplemented with glucose and ready to be cultured.
Cochlea explants were cultured in uncoated 96 well microplates. A single organ of Corti was placed in a well and was kept floating in the medium.
Explants were kept in normal medium for 24 hours (90 µl/well). Neurturin protein solution (10 µl) was added to the 'treated' cultures, and 10 µl of medium were added to controls. After 24 hours of incubation, the media were changed and the explants were exposed to ototoxin-containing medium (90 µl), with neurturin protein solution (10µl) or without (control). The cultures were incubated for an additional 3 days. […]
To identify and count hair cells in the organ of Corti, a direct immunostaining method was used to label the actin present naturally in the stereocilia bundles of the hair cells. […] The explants were . observed under a Nikon Diaphot-300 inverted fluorescence microscope, using FITC filters and fluorescence optics.
For each experimental point, 2 to 4 cochlea were used. In each cochlea, the number of hair cells was counted in 2-3 section, […] in length each. Only the sections in the middle turn of the cochlea were analyzed. […]

| Compound | loss of hair cells in the left ear (untreated ear) (cochlear hair cells [1]) | morphology of the organs of Corti (four-row structure) (cochlear hair cells [2]) | Hair cell survival (% of untreated) (cochlear hair cells [3]) [n=23%] | Hair cell survival (% of untreated) (cochlear hair cells [3]; listed as neomycin) [%] | morphology of the organs of Corti (four-row structure) (cochlear hair cells [3]; neomycin treatment alone, spared hair cells) |
| --- | --- | --- | --- | --- | --- |
| N.N.[Cl][Pt][Cl] [Cisplatin] | approximately 40% | caused a marked disruption of the four-row-structure |  |  |  |
| Neomycin |  |  | 5.9 ± 4.7 | 6 | still organized in the typical four row structure |
